Test results as given in publication PMC9319939, “Siccanin Is a Dual-Target Inhibitor of Plasmodium falciparum Mitochondrial Complex II and Complex III” (Pharmaceuticals, 2022).
Where two headings read alike, the source gives them in different places.

Key:
P. falciparum 3D7 = assay: Drug sensitivity assay, 72 h, PfLDH-based; assay type: cell-based; settings: Plasmodium falciparum
Method: The P. falciparum 3D7 strain was cultured, as described previously, in 3% hematocrit type A human red blood cells (RBCs) in RPMI1640 medium (Invitrogen; San Diego, CA, USA) supplemented with 25 mM sodium hydrogen biocarbonate, 10 μg/mL hypoxanthine, 40 μg/mL gentamicin sulfate, and 0.5% (w/v) Albumax II (Invitrogen) (“complete medium”). Cultures were maintained in a MG-70M multi-gas incubator (Taitec) under the conditions of 5% O2, 5% CO2, and 90% N2 at 37 °C. The medium was replaced daily. Parasitemia was measured by thin blood smears stained with Giemsa. In our previous study, we generated mutant P. falciparum strains expressing either disrupted or full-length versions of the flavoprotein (Fp) subunit (encoded by the Pfsdha gene). Both strains were cultured in complete medium at 3% hematocrit supplemented with 5 nM WR99210 (Jacobus Pharmaceuticals; Plainsboro, NJ, USA). The experiments using human RBCs were performed under the guidelines of Research Ethics Committee of the Faculty of Medicine of the University of Tokyo and Institutional Review Board (IRB) of Nagasaki University (Permission nos. 10050 and no. 19, respectively). Human RBCs were obtained from The Japanese Red Cross Society. The synchronization of parasite cultures was performed by treating with 5% (w/v) sorbitol for 10 min [77].
(§1) Synchronized ring-form parasites (0.3% parasitemia) were prepared in complete medium containing different concentration of various compounds (at a fixed final DMSO concentration of 0.1% (v/v)) and distributed to 96-well plates at 100 μL/well. After 72 h of incubation, parasite growth was monitored by the previously described lactate dehydrogenase (PfLDH)-based assay method; plates were read using a SpectraMax® Paradigm spectrophotometer (Molecular Devices, Inc.; San Jose, CA, USA). EC50 values were calculated using Prism® ver.6.01 (GraphPad; San Diego, CA, USA). Values are presented as the means of three independent experiments.

[1] = system: Dd2_GNF (Carl-I1139K mutation); assay: Growth inhibition of Dd2_GNF (GNF156-resistant); assay type: cell-based; settings: Plasmodium falciparum, read-out: Growth inhibition EC50, GNF
Method: (§2) P. falciparum 3D7-yDHODH was prepared and maintained as described previously. P. falciparum Dd2, and Dd2-derived mutant strains were kindly provided by David A. Fidock, and maintained at Nagasaki University essentially as described in reference, except without supplementation with WR99210.
as §1

Mammal complex II = settings: ref Mogi et al. [34]; read-out: Siccanin IC50, Mammal, Complex II; cited from earlier work
[2] = system: glycerol-3-phosphate dehydrogenase (G3PDH); assay: G3PDH activity, crude mitochondrial fraction, DCIP reduction; assay type: biochemical, Plasmodium falciparum
Method: A synchronized parasite culture was grown for 64 h and a crude mitochondrial fraction was prepared from trophozoite-stage cells (as confirmed by Giemsa staining). Infected red blood cells were collected by centrifugation at 800× g for 5 min at 4 °C and incubated for 5 min at room temperature with 40 mL of 0.075% (w/v) saponin in AIM buffer (120 mM KCl, 20 mM NaCl, 10 mM PIPES (1,4-piperazinediethanesulfonic acid) buffer [pH 6.7], 1 mM MgCl2, 5 mM glucose). Released parasites were collected by centrifugation at 2780× g for 7 min at 4 °C and washed three times with AIM buffer. […]
Complex II, DHODH, MQO, NDH2, G3PDH, and dihydroorotate-cytochrome c (DHO-cyt c) reductase activities were measured, as described previously, using a V-660 spectrophotometer (JASCO; Tokyo, Japan). Briefly, complex II activity was measured at 25 °C in a 1 mL reaction mixture containing 45 μM 2,6-dichlorophenolidophenol (DCIP), 100 μM ubiquinone-2 (UQ2), and 2 mM KCN in 50 mM potassium phosphate buffer, pH 8.0. DHODH, MQO, and G3PDH activities were measured at 25 °C in 1 mL of the reaction mixture containing 45 μM DCIP, 100 μM UQ2, and 2 mM KCN in 30 mM Tris-HCl buffer, pH 8.0. […] NDH2 activity was measured at 25 °C in 1 mL of the reaction mixture containing 100 µM UQ1 and 2 mM KCN in 50 mM potassium phosphate buffer, pH 8.0. […]

[3] = system: Dd2_ELQ300 (cyt b-I22L mutation at Qi site); assay: Growth inhibition of Dd2_ELQ300 (ELQ300-resistant); assay type: cell-based; settings: Plasmodium falciparum, read-out: Growth inhibition EC50, ELQ300
Method: as §2, §1

[4] = system: P. falciparum (synchronized ring-form parasites); assay: Assessment of parasite survival, Giemsa-stained smears; assay type: cell-based, Plasmodium falciparum; settings: 50 µM siccanin; 16, 24, 32, 48 h
Method: Synchronized ring-form parasites (2% parasitemia) were prepared in complete medium containing 50 µM siccanin (at a fixed final DMSO concentration of 0.1% (v/v)) and distributed to 24-well plates at 1 mL/well. After incubation for 16, 24, 32, and 48 h, parasitemia was assessed under the microscope using thin blood smears stained with Giemsa.

P. falciparum Dd2 = assay: Growth inhibition of Dd2 parent; assay type: cell-based; settings: Plasmodium falciparum, DD2, read-out: Growth inhibition EC50, Dd2
Method: as §2, §1

In the case of `Cc1cc(O)c2c(c1)O[C@@]1(C)CC[C@H]3C(C)(C)CCC[C@]34CO[C@@H]2[C@H]41` [Siccanin], the IC50 (P. falciparum 3D7; 3D7, read-out: Growth IC50, parent (wild-type) 3D7) is reported as 6.1 ± 1 µM, the EC50 (P. falciparum 3D7; 3D7, Figure 6a, read-out: Growth inhibition EC50, 3D7 (parent)) is reported as 11.7 µM and the IC50 (P. falciparum 3D7; 3D7, 72 h, 5 mM fumarate, read-out: Growth IC50 in presence of fumarate) is reported as 11.5 ± 1.09 µM. It also gave an IC50 (P. falciparum 3D7; 3D7, 72 h, 5 mM succinate, read-out: Growth IC50 in presence of succinate) of 10.8 ± 2.16 µM, an IC50 (P. falciparum 3D7; 3D7, 72 h, no succinate or fumarate added, read-out: Growth IC50, P. falciparum) of 8.4 µM and an EC50 [1] of 13.4 µM. The IC50 (Mammal complex II) was 861 µM, the “Effect on G3PDH activity” value ([2]; 10 µM) was “weakly inhibited” and the “Relative residual activity of G3PDH” value ([2]; siccanin 10 μM) was 72.5 ± 4.0%. The EC50 [3] was 18.7 µM, the “Live parasites under the microscope” value [4] was “could not detect live parasites” and the EC50 (P. falciparum Dd2) was 12.4 µM.
